Experimental data: PMC6396121 (ACS Omega, 2019)

Columns and labels:
[1] = test system: BHK cells expressing KRAS^G12D; test: Western analysis of cell signaling in BHK cells expressing KRAS G12D; format: cell-based, hamster
NRAS^WT = NRAS^WT (Homo sapiens, UniProt P01111); test: MST binding to NRAS WT; conditions: GDP and GTP-bound forms
^GDPKRAS^G12D = ^GDPKRAS^G12D (Homo sapiens, UniProt P01116, G12D); test: MST binding to GDP-bound KRAS G12D; conditions: GDP state
[2] = biological target: KRAS^G12D–Raf^RBD interaction (Homo sapiens, UniProt P01116, G12D); test: Pull-down of GFP-KRAS G12D by GST-Raf RBD in cell lysates; format: biochemical; conditions: 1 μM compound
KRASWT = KRASWT (Homo sapiens, UniProt P01116); test: Intrinsic nucleotide exchange; format: biochemical; conditions: 1 μM compound
HRAS^WT = HRAS^WT (Homo sapiens, UniProt P01112); test: MST binding to HRAS WT; conditions: GDP and GTP-bound forms
[3] = biological target: KRAS^G12D–cRaf interaction (Homo sapiens, UniProt P01116, G12D); test: FLIM-FRET of GFP-KRAS G12D with RFP-cRaf; format: cell-based, hamster; conditions: 1 μM compound
[4] = test system: BHK cells expressing HRAS^G12V; test: Western analysis of cell signaling in BHK cells expressing HRAS G12V; format: cell-based, hamster
[5] = test system: lung cancer cells harboring KRAS^G12D or KRAS^G12V; test: CyQUANT proliferation, lung cancer cells with mutant KRAS; format: cell-based; conditions: 5 μM compound, 72 h
[6] = test system: BHK cells expressing KRAS^G12V; test: Western analysis of cell signaling in BHK cells expressing KRAS G12V; format: cell-based, hamster
KRAS = KRAS (Homo sapiens, UniProt P01116); test: Intrinsic nucleotide; format: biochemical; conditions: 1 μM compound
^GDPKRAS^WT = ^GDPKRAS^WT (Homo sapiens, UniProt P01116); test: MST binding to GDP-bound KRAS WT; conditions: GDP state
[7] = test system: oral cancer cells with or without mutant HRAS; test: CyQUANT proliferation, oral cancer cells; format: cell-based; conditions: 5 μM compound, 72 h
Rap1b = biological target: T1, Rap1b (Homo sapiens, UniProt P61224); test: MST binding to control GTPase Rap1b; conditions: control RAS-related small GTPase
T1 sequence (P61224 1-166): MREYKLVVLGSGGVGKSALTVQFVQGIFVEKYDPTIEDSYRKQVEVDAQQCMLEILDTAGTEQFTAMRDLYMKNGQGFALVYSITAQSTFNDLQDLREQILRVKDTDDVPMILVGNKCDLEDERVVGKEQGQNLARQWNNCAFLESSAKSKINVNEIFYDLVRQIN

[8] = test system: lung cancer cells with wild-type KRAS; test: CyQUANT proliferation, lung cancer cells with wild-type KRAS; format: cell-based; conditions: 5 μM compound, 72 h
[9] = biological target: KRAS^G12D and RBD interaction (Homo sapiens, UniProt P01116, G12D); test: FLIM-FRET of GFP-KRAS G12D with mCherry-RBD in BHK cells; format: cell-based, hamster; conditions: 1 μM compound for 2 h; ∼1.93 ns untreated, ∼2.3 ns without RBD
KRAS and SOS [10] = biological target: T2, KRAS and SOS (Homo sapiens, UniProt P01116); test: SOS-mediated nucleotide exchange; format: biochemical; conditions: 1 μM compound
[11] = biological target: HRAS^G12V with Raf^RBD interaction (Homo sapiens, UniProt P01112, G12V); test: FLIM-FRET of GFP-HRAS G12V with mCherry-RBD in BHK cells; format: cell-based, hamster; conditions: 1 μM compound
KRAS–Raf^RBD interaction = KRAS–Raf^RBD interaction (Homo sapiens, UniProt P01116); test: Fluorescence polarization of KRAS binding to GST-Raf RBD; format: biochemical; conditions: 1 μM compound
KRAS and SOS [12] = biological target: T2, KRAS and SOS; test: SOS-mediated nucleotide; format: biochemical

Chain of NRAS^WT (P01111 1-166): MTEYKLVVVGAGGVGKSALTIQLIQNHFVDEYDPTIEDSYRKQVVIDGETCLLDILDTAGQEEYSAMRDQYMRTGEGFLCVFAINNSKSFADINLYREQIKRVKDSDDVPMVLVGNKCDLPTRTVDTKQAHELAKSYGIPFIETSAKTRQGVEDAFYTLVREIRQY

`Cc1nn2c(N3CCN(CCO)CC3)cc(-c3ccccc3)nc2c1-c1ccccc1` [Compound 11, 2-[4-(8-methyl-3,9-diphenyl-2,6,7-triazabicyclo[4.3.0]nona-2,4,7,9-tetraen-5-yl)piperazin-1-yl]ethanol] was tested, and the “drop in p-ERK levels” value ([1]; 1 μM, 3 h treatment) was “about 50%”, the “reduction of p-ERK levels” value ([1]; 5 μM, expanded concentration range) was ~50% and the “concentrations at which p-ERK levels decreased” value ([1]; primary western screen) was ≥ 1 µM. For the same compound, the “effect on p-AKT levels (AKT pathway signaling)” value ([1]; western) was “inhibits signaling through the AKT pathway but to a lesser extent than the MAPK pathway”, the “binding detected by MST” value (NRAS^WT) was “very weak or no binding” and the “binding detected by MST” value (^GDPKRAS^G12D) was “very weak or no binding”. For the same compound, the “decrease in GFP–KRAS^G12D levels pulled down” value [2] was > 50%, the “maximum reduction in rate” value (KRASWT) was ≤ 5% and the “binding detected by MST” value (HRAS^WT) was “very weak or no binding”. For the same compound, the “quenching of GFP fluorescence lifetime (KRAS^G12D–cRaf interaction)” value [3] was “significantly reduced”, the “effect on p-AKT levels” value ([4]; western) was “no statistically significant effect” and the “effect on p-ERK and p-cRaf levels” value ([4]; western, ligand concentration range tested) was “less effect”. The “growth relative to DMSO control” value [5] was 30–35%, the “effect on p-ERK and p-cRaf levels” value [6] was “dose-dependently decreases” and the “maximum reduction in rate” value (KRAS) was ≤ 5%. The “binding detected by MST” value (^GDPKRAS^WT) was “very weak or no binding”, the “growth relative to DMSO control” value [7] was 60–80% and the “binding detected by MST” value (Rap1b) was “very weak or no binding”. The “growth relative to DMSO control” value [8] was 60–80%, the GFP fluorescence lifetime [9] was ~2.02 ns and the “maximum reduction in rate” value (KRAS and SOS [10]) was ≤ 5%. For the same compound, the “effect on interaction of HRAS^G12V with Raf^RBD” value [11] was “opposite albeit small effect”, the “fold reduction of affinity of KRAS to Raf^RBD” value (KRAS–Raf^RBD interaction) was ~13 fold and the “reduction of polarization (RAS–Raf^RBD interaction)” value (KRAS–Raf^RBD interaction; at 2 μM GST–Raf^RBD) was > 80%. The “effect on SOS-mediated nucleotide release rate” value (KRAS and SOS [12]) was “only modestly decreased” and the “maximum reduction in rate” value (KRAS and SOS [12]; 1 μM compound) was ≤ 5%.
In the case of `N#CC(=C(/N)Sc1ccccc1N)/C(C#N)=C(/N)Sc1ccccc1N` [Compound U0126, reference compound], the “effect on MAPK signaling” value ([4]; 10 μM) is reported as “almost completely abolished”.
